According to PMC7401273, “Unexpected Enhancement of HDACs Inhibition by MeS Substitution at C-2 Position of Fluoro Largazole” (Marine Drugs, 2020):
Where two headings read alike, the source gives them in different places.

Tests used:
recombinant human HDAC1 [1] = biological target: T1, recombinant human HDAC1 (Homo sapiens, UniProt Q13547); design: method as in PMID 31163697; conditions: previously reported data, cited from earlier work; for Selectivity (HDAC1/6): selectivity of HDAC1 over HDAC6
T1 construct: purchased BPS Biosciences

recombinant human HDAC2 [2] = biological target: T2, recombinant human HDAC2 (Homo sapiens, UniProt Q92769); design: method as in PMID 31163697; conditions: previously reported data; cited from earlier work
T2 construct: purchased BPS Biosciences

recombinant human HDAC3 [3] = biological target: T3, recombinant human HDAC3 (Homo sapiens, UniProt O15379); design: method as in PMID 31163697; conditions: previously reported data; cited from earlier work
T3 construct: purchased BPS Biosciences

recombinant human HDAC8 [4] = biological target: T4, recombinant human HDAC8 (Homo sapiens, UniProt Q9BY41); design: method as in PMID 31163697; conditions: previously reported data; cited from earlier work
T4 construct: purchased BPS Biosciences
T4 sequence (Q9BY41 1-377): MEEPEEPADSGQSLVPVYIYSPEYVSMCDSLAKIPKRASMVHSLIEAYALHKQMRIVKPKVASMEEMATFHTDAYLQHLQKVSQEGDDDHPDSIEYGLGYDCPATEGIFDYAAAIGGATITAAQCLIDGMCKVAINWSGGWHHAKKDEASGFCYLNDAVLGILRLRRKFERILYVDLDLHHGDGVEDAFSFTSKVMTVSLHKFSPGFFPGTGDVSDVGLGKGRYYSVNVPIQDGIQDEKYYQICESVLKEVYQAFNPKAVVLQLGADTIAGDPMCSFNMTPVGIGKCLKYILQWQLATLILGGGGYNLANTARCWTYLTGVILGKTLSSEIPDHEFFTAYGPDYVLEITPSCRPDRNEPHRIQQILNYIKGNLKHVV

recombinant human HDAC6 [5] = biological target: T5, recombinant human HDAC6 (Homo sapiens, UniProt Q9UBN7); design: method as in PMID 31163697; conditions: previously reported data; cited from earlier work
T5 construct: purchased BPS Biosciences
T5 sequence (Q9UBN7 1-1215): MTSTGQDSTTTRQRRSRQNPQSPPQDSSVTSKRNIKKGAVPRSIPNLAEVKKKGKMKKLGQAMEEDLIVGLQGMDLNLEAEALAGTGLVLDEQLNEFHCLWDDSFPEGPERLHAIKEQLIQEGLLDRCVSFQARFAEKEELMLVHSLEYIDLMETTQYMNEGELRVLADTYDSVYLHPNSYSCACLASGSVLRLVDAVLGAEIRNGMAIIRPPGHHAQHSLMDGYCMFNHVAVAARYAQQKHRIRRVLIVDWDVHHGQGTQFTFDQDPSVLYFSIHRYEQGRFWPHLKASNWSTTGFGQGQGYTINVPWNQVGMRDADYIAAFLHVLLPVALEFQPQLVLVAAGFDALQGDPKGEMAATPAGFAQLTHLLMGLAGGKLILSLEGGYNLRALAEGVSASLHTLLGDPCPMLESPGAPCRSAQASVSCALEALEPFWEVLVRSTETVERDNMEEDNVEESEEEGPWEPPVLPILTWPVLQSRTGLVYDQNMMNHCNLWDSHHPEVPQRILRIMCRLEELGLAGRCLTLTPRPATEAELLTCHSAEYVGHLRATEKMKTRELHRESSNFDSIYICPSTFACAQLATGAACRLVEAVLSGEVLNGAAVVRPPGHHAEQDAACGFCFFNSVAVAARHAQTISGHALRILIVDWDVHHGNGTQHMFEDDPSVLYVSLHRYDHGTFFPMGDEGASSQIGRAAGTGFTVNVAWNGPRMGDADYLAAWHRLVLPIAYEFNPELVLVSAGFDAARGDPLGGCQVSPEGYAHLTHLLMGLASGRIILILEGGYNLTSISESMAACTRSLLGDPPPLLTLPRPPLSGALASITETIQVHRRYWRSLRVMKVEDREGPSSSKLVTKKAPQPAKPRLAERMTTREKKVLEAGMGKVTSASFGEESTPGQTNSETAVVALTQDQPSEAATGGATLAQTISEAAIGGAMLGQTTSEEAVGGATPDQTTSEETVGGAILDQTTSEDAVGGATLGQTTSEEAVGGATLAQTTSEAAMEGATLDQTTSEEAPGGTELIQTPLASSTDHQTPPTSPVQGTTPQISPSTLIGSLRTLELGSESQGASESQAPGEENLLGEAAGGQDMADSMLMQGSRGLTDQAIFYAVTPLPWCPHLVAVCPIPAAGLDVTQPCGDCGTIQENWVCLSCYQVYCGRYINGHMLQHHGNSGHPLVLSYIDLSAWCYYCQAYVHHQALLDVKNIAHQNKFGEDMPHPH

recombinant human HDAC1 [6] = biological target: T1, recombinant human HDAC1; experiment: recombinant human HDAC1 enzymatic assay; type: biochemical; conditions: 10-dose IC50 mode in duplicate, three-fold serial dilution
Experimental: (§1) The assays were carried out by Shanghai ChemPartner Co., Ltd (Shanghai, China), according to our previous method. Briefly, different concentrations of compounds were incubated with recombinant human HDAC1, HDAC2, HDAC3, HDAC6 and HDAC8 (BPS Biosciences, San Diego, CA, USA) at room temperature for 15 min, which was followed by adding Ac-peptide-AMC substrates to initiate the reaction in Tris-based assay buffer. Reaction mixtures were incubated at room temperature for 60 min in HDAC1, HDAC2, HDAC3 and HDAC6 assays, and were incubated for 240 min in HDAC8 assay. Then, the stop solution containing trypsin was added. The coupled reaction was incubated for another 90 min at 37 °C. Fluorescent AMC released from substrate was measured in SynergyMx (BioTek, Winooski, VT, US) using filter sets as excitation = 355 nm and emission = 460 nm. IC50 values were calculated by GraphPad Prism software (7.0 version., GraphPad Software, San Diego, CA, USA).

recombinant human HDAC2 [7] = biological target: T2, recombinant human HDAC2; experiment: recombinant human HDAC2 enzymatic assay; type: biochemical; conditions: 10-dose IC50 mode in duplicate, three-fold serial dilution
Experimental: The assays were carried out by Shanghai ChemPartner Co., Ltd (Shanghai, China), according to our previous method [23, 24]. Briefly, different concentrations of compounds were incubated with recombinant human HDAC1, HDAC2, HDAC3, HDAC6 and HDAC8 (BPS Biosciences, San Diego, CA, USA) at room temperature for 15 min, which was followed by adding Ac-peptide-AMC substrates to initiate the reaction in Tris-based assay buffer. Reaction mixtures were incubated at room temperature for 60 min in HDAC1, HDAC2, HDAC3 and HDAC6 assays, and were incubated for 240 min in HDAC8 assay. Then, the stop solution containing trypsin was added. The coupled reaction was incubated for another 90 min at 37 °C. Fluorescent AMC released from substrate was measured in SynergyMx (BioTek, Winooski, VT, US) using filter sets as excitation = 355 nm and emission = 460 nm. IC50 values were calculated by GraphPad Prism software (7.0 version., GraphPad Software, San Diego, CA, USA).

recombinant human HDAC3 [8] = biological target: T3, recombinant human HDAC3; experiment: recombinant human HDAC3 enzymatic assay; type: biochemical; conditions: 10-dose IC50 mode in duplicate, three-fold serial dilution
Experimental: as §1

recombinant human HDAC8 [9] = biological target: T4, recombinant human HDAC8; experiment: recombinant human HDAC8 enzymatic assay; type: biochemical; conditions: 10-dose IC50 mode in duplicate, three-fold serial dilution
Experimental: as §1

recombinant human HDAC6 [10] = biological target: T5, recombinant human HDAC6; experiment: recombinant human HDAC6 enzymatic assay; type: biochemical; conditions: 10-dose IC50 mode in duplicate, three-fold serial dilution
Experimental: as §1

A549 cells = experiment: in vitro growth inhibition (MTT), A549 cells; type: cell-based; conditions: Homo sapiens, 72 h, at least seven-dose, duplicate
Experimental: (§2) Eca-109, Bel 7402 and U937 cell lines were purchased from ATCC (Manassas, VA, USA), and the other tested cell lines were obtained from the Shanghai Institute for Biological Sciences, Chinese Academy of Sciences (Shanghai, China). MDA-MB-231, Hela, Eca-109 and Bel 7402 cells were cultured in DMEM medium supplemented with 10% heat-inactivated fetal bovine serum, 100 U/mL penicillin and 100 μg/mL streptomycin (Beyotime Biotech, Shanghai, China). A549 cells were cultured in F-12K medium supplemented with 10% heat-inactivated fetal bovine serum, 100 U/mL penicillin and 100 μg/mL streptomycin. HCT116 and SK-OV-3 cells were cultured in McCoy’s 5A medium supplemented with 10% heat-inactivated fetal bovine serum, 100 U/mL penicillin and 100 μg/mL streptomycin. U937 cells were cultured in RPMI-1640 medium supplemented with 10% heat inactivated fetal bovine serum, 100 U/mL penicillin and 100 μg/mL streptomycin. All cells were cultured at 37 °C in humidified air containing 5% CO2. According to our previous method, A549, HCT116, MDA-MB-231, SK-OV-3, Hela, Eca-109, Bel 7403 and U937 (600,000 cells/well) were seeded in 96-well plates and incubated for 24 h before being treated with various concentration of compounds or solvent control. Cells were further incubated for 72 h and then treated with MTT and incubated for another 3 h. The media was then removed and 100 μL DMSO was added to each well. The absorbance at 550 nm was measured by a SpectraMAX340 microplate reader (Molecular Devices, San Jose, CA, USA) with a reference wavelength at 690 nm. Adriamycin was used as a positive control in the assay.

HCT116 cells = experiment: in vitro growth inhibition (MTT), HCT116 cells; type: cell-based; conditions: Homo sapiens, HCT-116, 72 h, at least seven-dose, duplicate
Experimental: as §2

MDA-MB-231 cells = experiment: in vitro growth inhibition (MTT), MDA-MB-231 cells; type: cell-based; conditions: Homo sapiens, 72 h, at least seven-dose, duplicate
Experimental: as §2

SK-OV-3 cells = experiment: in vitro growth inhibition (MTT), SK-OV-3 cells; type: cell-based; conditions: Homo sapiens, 72 h, at least seven-dose, duplicate
Experimental: as §2

Hela cells = experiment: in vitro growth inhibition (MTT), Hela cells; type: cell-based; conditions: Homo sapiens, 72 h, at least seven-dose, duplicate
Experimental: as §2, with “Cells were further incubated for 72 h and then treated with MTT and incubated for another 3 h. The media was then removed and 100 μL DMSO was added to each well.” left out, “Adriamycin was used as a positive control in the assay.” left out

Eca-109 cells = experiment: in vitro growth inhibition (MTT), Eca-109 cells; type: cell-based; conditions: Homo sapiens, 72 h, at least seven-dose, duplicate
Experimental: as §2, with “Cells were further incubated for 72 h and then treated with MTT and incubated for another 3 h. The media was then removed and 100 μL DMSO was added to each well.” left out, “Adriamycin was used as a positive control in the assay.” left out

Bel 7402 cells = experiment: in vitro growth inhibition (MTT), Bel 7402 cells; type: cell-based; conditions: Homo sapiens, 72 h, at least seven-dose, duplicate
Experimental: as §2, with “Cells were further incubated for 72 h and then treated with MTT and incubated for another 3 h. The media was then removed and 100 μL DMSO was added to each well.” left out, “Adriamycin was used as a positive control in the assay.” left out

U937 cells = experiment: in vitro growth inhibition (MTT), U937 cells; type: cell-based; conditions: Homo sapiens, U-937, 72 h, at least seven-dose, duplicate
Experimental: as §2, with “Cells were further incubated for 72 h and then treated with MTT and incubated for another 3 h. The media was then removed and 100 μL DMSO was added to each well.” left out, “Adriamycin was used as a positive control in the assay.” left out

[11] = tested on: A549, HCT116 and SK-OV-3 cells; experiment: in vitro growth inhibition (MTT), range over three cell lines; type: cell-based; conditions: towards A549, HCT116 and SK-OV-3 cells
Experimental: as §2, with “Cells were further incubated for 72 h and then treated with MTT and incubated for another 3 h. The media was then removed and 100 μL DMSO was added to each well.” left out, “Adriamycin was used as a positive control in the assay.” left out

T2 sequence (Q92769 whole entry): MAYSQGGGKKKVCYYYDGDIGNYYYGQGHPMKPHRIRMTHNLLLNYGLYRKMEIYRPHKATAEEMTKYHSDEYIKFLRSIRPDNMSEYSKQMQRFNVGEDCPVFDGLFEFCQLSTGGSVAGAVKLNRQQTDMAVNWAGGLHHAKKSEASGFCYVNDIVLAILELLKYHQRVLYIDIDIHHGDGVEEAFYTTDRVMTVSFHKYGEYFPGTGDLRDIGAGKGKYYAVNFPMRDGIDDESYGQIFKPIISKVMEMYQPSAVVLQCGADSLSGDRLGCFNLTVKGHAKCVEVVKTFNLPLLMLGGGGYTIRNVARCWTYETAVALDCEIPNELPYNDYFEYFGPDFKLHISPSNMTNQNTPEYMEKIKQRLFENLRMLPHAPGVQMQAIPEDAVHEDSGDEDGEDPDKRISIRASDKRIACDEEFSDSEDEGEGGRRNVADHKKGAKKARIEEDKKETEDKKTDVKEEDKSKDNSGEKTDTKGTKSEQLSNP
T3 sequence (O15379 whole entry): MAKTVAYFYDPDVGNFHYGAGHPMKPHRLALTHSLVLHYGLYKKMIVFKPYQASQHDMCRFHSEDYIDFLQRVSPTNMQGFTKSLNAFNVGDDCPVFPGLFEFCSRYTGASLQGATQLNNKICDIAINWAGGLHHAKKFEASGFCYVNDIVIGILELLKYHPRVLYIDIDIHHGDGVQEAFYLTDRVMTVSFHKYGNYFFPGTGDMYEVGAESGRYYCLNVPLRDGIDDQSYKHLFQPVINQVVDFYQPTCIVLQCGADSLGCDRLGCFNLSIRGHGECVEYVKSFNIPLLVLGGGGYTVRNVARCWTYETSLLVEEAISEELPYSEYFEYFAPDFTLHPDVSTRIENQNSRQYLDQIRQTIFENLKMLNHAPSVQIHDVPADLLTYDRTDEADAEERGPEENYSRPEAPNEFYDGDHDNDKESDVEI
T3 sequence (Q9Y618 395-489 partner limits assumed): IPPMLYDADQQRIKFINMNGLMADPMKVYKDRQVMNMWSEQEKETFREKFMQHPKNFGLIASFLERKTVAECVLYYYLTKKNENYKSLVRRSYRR
T1 sequence (Q13547 whole entry): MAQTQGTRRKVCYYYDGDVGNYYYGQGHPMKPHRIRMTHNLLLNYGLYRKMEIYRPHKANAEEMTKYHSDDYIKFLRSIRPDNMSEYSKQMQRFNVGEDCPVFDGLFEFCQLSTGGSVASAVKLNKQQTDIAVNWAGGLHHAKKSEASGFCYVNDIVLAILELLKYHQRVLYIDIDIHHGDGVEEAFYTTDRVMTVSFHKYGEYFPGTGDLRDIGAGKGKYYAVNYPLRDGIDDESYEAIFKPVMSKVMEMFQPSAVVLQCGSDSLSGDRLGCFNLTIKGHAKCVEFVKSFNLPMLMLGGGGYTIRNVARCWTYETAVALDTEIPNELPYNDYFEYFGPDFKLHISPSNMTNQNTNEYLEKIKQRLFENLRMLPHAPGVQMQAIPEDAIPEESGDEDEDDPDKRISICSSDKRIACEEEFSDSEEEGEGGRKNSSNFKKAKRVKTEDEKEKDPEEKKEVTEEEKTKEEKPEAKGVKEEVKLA

## CC(C)C1NC(=O)C2(C)CSC(=N2)c2csc(n2)CNC(=O)CC(C(F)=CCCS)OC1=O (centres unmarked) [Compound 15a]
Recombinant human HDAC1 [1]
  IC50: 4.39 ± 0.17 nM
  Selectivity (HDAC1/6): 68
Recombinant human HDAC2 [2]
  IC50: 21 ± 0.3 nM
Recombinant human HDAC3 [3]
  IC50: 39.2 ± 2.3 nM
Recombinant human HDAC8 [4]
  IC50: 8.38 ± 2.46 nM
Recombinant human HDAC6 [5]
  IC50: 300 ± 5 nM

## CC12CSC(=N1)c1csc(n1)CNC(=O)CC(C(F)=CCCS)OC(=O)C(Cc1ccccc1)NC2=O (centres unmarked) [Compound 15b]
Recombinant human HDAC1 [1]
  IC50: 4.24 ± 0.38 nM
  Selectivity (HDAC1/6): 80
Recombinant human HDAC2 [2]
  IC50: 16.3 ± 0.4 nM
Recombinant human HDAC3 [3]
  IC50: 37.1 ± 0.8 nM
Recombinant human HDAC8 [4]
  IC50: 17.5 ± 4.2 nM
Recombinant human HDAC6 [5]
  IC50: 338 ± 17 nM

## CSCC1NC(=O)C2(C)CSC(=N2)c2csc(n2)CNC(=O)CC(C(F)=CCCS)OC1=O [Compound 15c, (1^2Z,2^2Z,2^4R,8S)-8-((Z)-1-fluoro-4-mercaptobut-1-en-1-yl)-2^4-methyl-5-((methylthio)methyl)-2^4,2^5-dihydro-7-oxa-4,11-diaza-1(4,2),2(2,4)-dithiazolacyclododecaphane-3,6,10-trione]
Recombinant human HDAC1 [6]
  IC50: 0.27 ± 0.02 nM
Recombinant human HDAC2 [7]
  IC50: 1.33 ± 0.02 nM
Recombinant human HDAC3 [8]
  IC50: 2.33 ± 0.15 nM
Recombinant human HDAC8 [9]
  IC50: 0.44 ± 0.16 nM
Recombinant human HDAC6 [10]
  IC50: 23.9 nM

## CCCCCCCC(=O)SCC/C=C(\F)[C@@H]1CC(=O)NCc2nc(cs2)C2=N[C@@](C)(CS2)C(=O)N[C@@H](CSC)C(=O)O1 [Compound 16c, S-((Z)-4-fluoro-4-((1^2Z,2^2Z,2^4R,5R,8S)-2^4-methyl-5-((methylthio)methyl)-3,6,10-trioxo-2^4,2^5-dihydro-7-oxa-4,11-diaza-1(4,2),2(2,4)-dithiazolacyclododecaphane-8-yl)but-3-en-1-yl) octanethioate]
A549 cells
  IC50: 2920 ± 530 nM
HCT116 cells
  IC50: 1410 ± 540 nM
MDA-MB-231 cells
  IC50: > 10000 nM
SK-OV-3 cells
  IC50: 3130 ± 500 nM
Hela cells
  IC50: 100 ± 10 nM
Eca-109 cells
  IC50: 90 ± 20 nM
Bel 7402 cells
  IC50: 250 ± 70 nM
U937 cells
  IC50: 80 ± 20 nM
[11]
  IC50: 1410 to 3130 nM

## CCCCCCCC(=O)SCC/C=C(\F)[C@@H]1CC(=O)NCc2nc(cs2)C2=N[C@@](C)(CS2)C(=O)NCC(=O)O1 [Compound 16d, S-((Z)-4-fluoro-4-((1^2Z,2^2Z,2^4R,8S)-2^4-methyl-3,6,10-trioxo-2^4,2^5-dihydro-7-oxa-4,11-diaza-1(4,2),2(2,4)-dithiazolacyclododecaphane-8-yl)but-3-en-1-yl) octanethioate]
A549 cells
  IC50: > 10000 nM
HCT116 cells
  IC50: 6620 ± 1860 nM
MDA-MB-231 cells
  IC50: > 10000 nM
SK-OV-3 cells
  IC50: > 10000 nM

## CCCCCCCC(=O)SCC/C=C/[C@@H]1CC(=O)NCc2nc(cs2)C2=N[C@@](C)(CS2)C(=O)N[C@@H](C(C)C)C(=O)O1 [largazole]
A549 cells
  IC50: 520 ± 170 nM
HCT116 cells
  IC50: 110 ± 10 nM
MDA-MB-231 cells
  IC50: 4750 ± 1950 nM
SK-OV-3 cells
  IC50: 250 ± 170 nM
Hela cells
  IC50: 170 ± 10 nM
Eca-109 cells
  IC50: 100 nM
Bel 7402 cells
  IC50: 170 ± 20 nM
U937 cells
  IC50: 20 nM
